Source: patent US20240024488A1, “COMPOUNDS AND USES THEREOF” (Foghorn Therapeutics Inc., priority 2020, published 2024)

Assays:
HiBit-BRM fusion protein = target: T1, HiBit-BRM fusion protein (Homo sapiens, UniProt P51531); assay: HiBiT-BRM cell-based degradation assay (Nano-Glo HiBiT Lytic Detection, 24 h); details: HeLa cell line expressing HiBiT-BRM; for DC50: read-out: BRM HiBit Degradation IC50
T1 construct: expressed in transfected cells
Method in brief: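 Luminescence from reconstituted NanoBiT luciferase in lysed HeLa HiBiT-BRM cells served as the measure of remaining BRM after 24 h treatment. Compounds were tested from 30 μM final downward in 3-fold steps. DMSO and 2 μM of a standard BRM/BRG1 degrader defined the scale limits.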

[1] = target: T2, HiBit-BRG1 fusion protein (Homo sapiens, UniProt P51532); assay: HiBiT-BRG1 cell-based degradation assay (Nano-Glo HiBiT Lytic Detection, 24 h); details: HeLa cell line expressing HiBit-BRG1 and LgBit; for Dmax: read-out: BRG1 HiBit Degradation Maximum (%)
T2 construct: expressed in transfected cells
Method in brief: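 Percent degradation derived from lytic HiBiT signal, normalized to DMSO-treated cells and to cells given 2 μM of a known BRM/BRG1 degrader. The HeLa line stably expressed HiBit-BRG1 and LgBit; treatment lasted 24 h at 5000 cells per well.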

T2 sequence (P51532 whole entry, the tested form may be a part): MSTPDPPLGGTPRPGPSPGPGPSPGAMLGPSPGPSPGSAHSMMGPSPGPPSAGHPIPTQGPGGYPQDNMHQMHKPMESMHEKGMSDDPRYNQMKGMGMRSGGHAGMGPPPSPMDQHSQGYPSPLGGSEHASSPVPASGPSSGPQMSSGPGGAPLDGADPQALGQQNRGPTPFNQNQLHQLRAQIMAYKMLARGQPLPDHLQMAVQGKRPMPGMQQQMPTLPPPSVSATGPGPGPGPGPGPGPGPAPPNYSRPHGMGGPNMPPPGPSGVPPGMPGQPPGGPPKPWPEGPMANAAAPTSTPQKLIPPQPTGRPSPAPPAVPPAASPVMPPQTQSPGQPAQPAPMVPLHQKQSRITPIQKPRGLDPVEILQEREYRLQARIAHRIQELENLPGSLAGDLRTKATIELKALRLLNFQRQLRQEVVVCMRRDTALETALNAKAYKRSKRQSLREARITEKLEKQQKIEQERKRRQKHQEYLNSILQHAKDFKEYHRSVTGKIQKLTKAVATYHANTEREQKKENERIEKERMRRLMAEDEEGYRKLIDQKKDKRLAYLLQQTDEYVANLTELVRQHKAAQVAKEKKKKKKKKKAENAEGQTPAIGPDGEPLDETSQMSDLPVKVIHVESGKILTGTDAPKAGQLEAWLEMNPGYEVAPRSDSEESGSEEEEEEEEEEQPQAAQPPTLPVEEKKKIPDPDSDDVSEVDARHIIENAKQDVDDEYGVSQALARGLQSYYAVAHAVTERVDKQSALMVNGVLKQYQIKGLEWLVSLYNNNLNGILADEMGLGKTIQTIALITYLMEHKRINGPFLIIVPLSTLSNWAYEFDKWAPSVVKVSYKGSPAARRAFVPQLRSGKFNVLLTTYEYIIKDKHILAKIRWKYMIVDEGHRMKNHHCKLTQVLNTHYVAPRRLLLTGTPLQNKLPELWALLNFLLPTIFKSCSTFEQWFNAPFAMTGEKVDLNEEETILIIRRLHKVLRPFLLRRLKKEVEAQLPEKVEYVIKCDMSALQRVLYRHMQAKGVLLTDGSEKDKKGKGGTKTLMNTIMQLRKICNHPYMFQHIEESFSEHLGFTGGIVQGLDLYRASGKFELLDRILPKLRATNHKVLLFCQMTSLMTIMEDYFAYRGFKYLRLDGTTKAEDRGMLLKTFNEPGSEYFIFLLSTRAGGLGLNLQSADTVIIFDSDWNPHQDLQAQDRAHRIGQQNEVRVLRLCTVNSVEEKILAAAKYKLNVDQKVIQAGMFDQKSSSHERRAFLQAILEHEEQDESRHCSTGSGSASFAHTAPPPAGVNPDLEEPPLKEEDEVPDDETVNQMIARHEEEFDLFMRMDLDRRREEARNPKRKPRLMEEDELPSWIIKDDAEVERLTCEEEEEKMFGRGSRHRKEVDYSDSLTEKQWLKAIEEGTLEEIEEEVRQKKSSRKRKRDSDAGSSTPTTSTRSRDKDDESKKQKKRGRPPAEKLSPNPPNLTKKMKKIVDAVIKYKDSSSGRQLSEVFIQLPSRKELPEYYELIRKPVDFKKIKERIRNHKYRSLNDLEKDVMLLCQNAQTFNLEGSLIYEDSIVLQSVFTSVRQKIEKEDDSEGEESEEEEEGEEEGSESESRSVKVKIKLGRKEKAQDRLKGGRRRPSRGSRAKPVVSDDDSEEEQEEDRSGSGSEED
T1 sequence (P51531 whole entry, the tested form may be a part): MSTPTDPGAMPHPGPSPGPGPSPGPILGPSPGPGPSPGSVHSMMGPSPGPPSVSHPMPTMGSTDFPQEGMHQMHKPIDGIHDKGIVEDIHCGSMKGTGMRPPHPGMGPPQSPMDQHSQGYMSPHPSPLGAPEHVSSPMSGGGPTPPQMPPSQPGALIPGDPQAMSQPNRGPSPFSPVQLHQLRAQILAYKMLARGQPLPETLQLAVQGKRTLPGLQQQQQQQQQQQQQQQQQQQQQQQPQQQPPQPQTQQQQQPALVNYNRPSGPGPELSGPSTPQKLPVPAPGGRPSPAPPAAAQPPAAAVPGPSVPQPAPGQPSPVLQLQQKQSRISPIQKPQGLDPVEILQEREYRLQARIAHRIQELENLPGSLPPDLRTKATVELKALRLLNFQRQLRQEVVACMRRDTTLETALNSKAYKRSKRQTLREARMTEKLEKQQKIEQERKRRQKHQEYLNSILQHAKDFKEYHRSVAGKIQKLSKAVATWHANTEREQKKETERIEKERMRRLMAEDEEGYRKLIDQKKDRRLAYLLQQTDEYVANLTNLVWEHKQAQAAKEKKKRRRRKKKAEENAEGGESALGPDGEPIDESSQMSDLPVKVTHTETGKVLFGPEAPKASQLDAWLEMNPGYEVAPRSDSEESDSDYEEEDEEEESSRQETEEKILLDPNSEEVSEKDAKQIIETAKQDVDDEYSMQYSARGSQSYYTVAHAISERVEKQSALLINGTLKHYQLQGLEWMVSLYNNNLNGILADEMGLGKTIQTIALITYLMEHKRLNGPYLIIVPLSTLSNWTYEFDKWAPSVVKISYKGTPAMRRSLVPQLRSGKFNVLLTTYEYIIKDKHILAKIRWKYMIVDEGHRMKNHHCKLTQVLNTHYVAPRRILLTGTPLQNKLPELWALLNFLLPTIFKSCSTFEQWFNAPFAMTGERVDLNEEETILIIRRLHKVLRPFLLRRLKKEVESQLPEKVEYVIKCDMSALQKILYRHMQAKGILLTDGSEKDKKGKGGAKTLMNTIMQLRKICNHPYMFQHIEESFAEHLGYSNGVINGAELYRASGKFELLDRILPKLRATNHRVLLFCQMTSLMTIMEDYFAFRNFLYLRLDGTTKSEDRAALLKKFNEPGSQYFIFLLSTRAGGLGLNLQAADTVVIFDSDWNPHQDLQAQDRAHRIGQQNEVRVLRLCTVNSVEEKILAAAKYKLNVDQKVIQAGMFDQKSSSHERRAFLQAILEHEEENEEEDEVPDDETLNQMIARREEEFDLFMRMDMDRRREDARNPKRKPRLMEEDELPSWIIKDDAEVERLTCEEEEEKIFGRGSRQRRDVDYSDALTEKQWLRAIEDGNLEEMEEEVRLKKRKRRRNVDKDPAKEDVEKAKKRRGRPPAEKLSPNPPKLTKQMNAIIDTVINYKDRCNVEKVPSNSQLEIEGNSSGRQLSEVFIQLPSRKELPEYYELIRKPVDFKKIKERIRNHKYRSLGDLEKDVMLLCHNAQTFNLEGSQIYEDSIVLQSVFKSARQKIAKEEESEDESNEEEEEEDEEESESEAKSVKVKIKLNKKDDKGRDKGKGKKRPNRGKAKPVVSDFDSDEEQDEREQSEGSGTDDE

Row | DC50 (HiBit-BRM fusion protein) | Dmax [1] | DC50 ([1]; read-out: BRMG1 HiBit Degradation IC50) | Compound | BRM HiBit Degradation Maximum (%) (HiBit-BRM fusion protein)
1 | > 100 nM | < 50% |  | Cc1ncsc1-c1ccc([C@H](C)NC(=O)[C@@H]2C[C@@H](O)CN2C(=O)[C@H](c2cc([C@H]3CC[C@@H](c4cnc(N5CCC(c6c[nH]c7nnc(-c8ccccc8O)cc67)CC5)nc4)CC3)no2)C(C)C)cc1 [Compound 309, (2S,4R)-4-hydroxy-N-[(1S)-1-[4-(4-methyl-1,3-thiazol-5-yl)phenyl]ethyl]-1-[(2S)-3-methyl-2-{3-[(1s,4s)-4-(2-{4-[3-(2-hydroxyphenyl)-7H-pyrrolo[2,3-c]pyridazin-5-yl]piperidin-1-yl}pyrimidin-5-yl)cyclohexyl]-1,2-oxazol-5-yl}butanoyl]pyrrolidine-2-carboxamide] | B (“B” indicates maximum degradation ≥ 50%)
2 | > 10 nM | > 50% | > 100 nM | Cc1ncsc1-c1ccc([C@H](C)NC(=O)[C@@H]2C[C@@H](O)CN2C(=O)[C@H](c2cc([C@H]3CC[C@H](c4cnc(N5CCC(c6c[nH]c7nnc(-c8ccccc8O)cc67)CC5)nc4)CC3)no2)C(C)C)cc1 [Compound 310, (2S,4R)-4-hydroxy-N-[(1S)-1-[4-(4-methyl-1,3-thiazol-5-yl)phenyl]ethyl]-1-[(2S)-3-methyl-2-{3-[(1r,4r)-4-(2-{4-[3-(2-hydroxyphenyl)-7H-pyrrolo[2,3-c]pyridazin-5-yl]piperidin-1-yl}pyrimidin-5-yl)cyclohexyl]-1,2-oxazol-5-yl}butanoyl]pyrrolidine-2-carboxamide] | A (“A” indicates maximum degradation ≥ 75%)
